# Reference: US12097190B2, “Therapeutic use of levorotatory β-lactams in hematopoiesis, immuno-oncology therapy, and regulation of lipoprotein and apolipoprotein levels” (Alpha-1 Biologics, LLC, priority 2017, dated 2024)
# Target: T1, soluble, granule-associated human leukocyte elastase (HLE-G) (Homo sapiens, UniProt P08246)
# T1 sequence (P08246 30-267): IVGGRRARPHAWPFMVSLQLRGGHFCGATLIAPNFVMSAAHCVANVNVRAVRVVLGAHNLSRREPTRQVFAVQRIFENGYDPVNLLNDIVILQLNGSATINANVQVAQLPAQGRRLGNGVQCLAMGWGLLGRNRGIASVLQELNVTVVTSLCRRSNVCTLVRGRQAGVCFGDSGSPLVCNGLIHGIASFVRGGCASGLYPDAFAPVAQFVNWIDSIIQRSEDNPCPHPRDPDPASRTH
# Assay: Inhibition of soluble human leukocyte elastase (HLE-G), SA3NA substrate, 405 nm
# Type: biochemical
# Settings: IC50 of compound versus HLE-G (75 μM)
# Protocol: The procedures for measuring the capacity of substances to inhibit soluble forms of elastase or HLE-G are well known to those of ordinary skill in the art (U.S. Pat. No. 6,887,678; Bristow et al., 1998). Briefly, soluble human leukocyte elastase (HLE-G) is incubated for 2 minutes with a test substance, and to this mixture is added the elastase substrate succinic-L-Ala-L-Ala-L-Ala-p-nitroanilide (SA3NA, Sigma-Aldrich). Results are detected by measuring the color change at 405 nm.
# Assay 1: Inhibition of HLE (microplate assay, 10 tests per plate) as described in Example 2 above and previously published (Bristow et al., 1998).
row,IC50 [µM],Compound
1,178,C[C@@H](O)[C@H]1C(=O)N2C(C(=O)O)=C(S[C@@H]3CN[C@H](CNS(N)(=O)=O)C3)[C@H](C)[C@H]12 [Doripenem]
2,167,"CO/N=C(\C(=O)N[C@@H]1C(=O)N2C(C(=O)O)=C(COC(N)=O)CS[C@H]12)c1ccco1 [Cefuroxine, Cefuroxime]"
3,234,C[C@H]1[C@H](NC(=O)/C(=N\OC(C)(C)C(=O)O)c2csc(N)n2)C(=O)N1S(=O)(=O)O [Aztreonam]
4,232,Cc1onc(-c2c(Cl)cccc2Cl)c1C(=O)N[C@@H]1C(=O)N2[C@@H]1SC(C)(C)[C@@H]2C(=O)O [Dicloxacillin]
5,203,C[C@@H](O)[C@H]1C(=O)N2C(C(=O)O)=C([C@H]3CCCO3)S[C@H]12 [Faropenem]
6,277,O=C1[C@H](CC[C@H](O)c2ccc(F)cc2)[C@@H](c2ccc(O)cc2)N1c1ccc(F)cc1 [Ezetimibe]

row,Compound,IC50 [µM]
1,"CC1(C)S[C@@H]2[C@H](NC(=O)COc3ccccc3)C(=O)N2[C@H]1C(=O)O [Pen V, Penicillin V]",262

# Same assay, conditions: Molar excess of compound to HLE-G at IC50
row,Molar Excess**,Compound
1,2.4,C[C@@H](O)[C@H]1C(=O)N2C(C(=O)O)=C(S[C@@H]3CN[C@H](CNS(N)(=O)=O)C3)[C@H](C)[C@H]12 [Doripenem]
2,2.2,"CO/N=C(\C(=O)N[C@@H]1C(=O)N2C(C(=O)O)=C(COC(N)=O)CS[C@H]12)c1ccco1 [Cefuroxine, Cefuroxime]"
3,3.1,C[C@H]1[C@H](NC(=O)/C(=N\OC(C)(C)C(=O)O)c2csc(N)n2)C(=O)N1S(=O)(=O)O [Aztreonam]
4,3.1,Cc1onc(-c2c(Cl)cccc2Cl)c1C(=O)N[C@@H]1C(=O)N2[C@@H]1SC(C)(C)[C@@H]2C(=O)O [Dicloxacillin]
5,2.7,C[C@@H](O)[C@H]1C(=O)N2C(C(=O)O)=C([C@H]3CCCO3)S[C@H]12 [Faropenem]
6,3.7,O=C1[C@H](CC[C@H](O)c2ccc(F)cc2)[C@@H](c2ccc(O)cc2)N1c1ccc(F)cc1 [Ezetimibe]

row,Compound,Molar Excess**
1,"CC1(C)S[C@@H]2[C@H](NC(=O)COc3ccccc3)C(=O)N2[C@H]1C(=O)O [Pen V, Penicillin V]",3.5

# Target: T2, cell surface human leukocyte elastase (HLE-CS) (Homo sapiens, UniProt P08246)
# T2 construct: endogenous in cells
# T2 sequence (P08246 30-267): T1 sequence (P08246 30-267)
# Assay: Adherence of U937 cells to compound-coated glass (binding to HLE-CS)
# Type: cell-based
# Settings: 2,000 U937 cells added per compound-treated well
# Text: Adherence is the first step in cell migration and requires […] calcium, magnesium, signaling, or energy. […] […] After washing and fixing the cells, the number of adherent cells were counted microscopically.
row,Optimal Adherence Concentration (nM)*** [nM],Compound
1,100,C[C@@H](O)[C@H]1C(=O)N2C(C(=O)O)=C(S[C@@H]3CN[C@H](CNS(N)(=O)=O)C3)[C@H](C)[C@H]12 [Doripenem]
2,1,"CO/N=C(\C(=O)N[C@@H]1C(=O)N2C(C(=O)O)=C(COC(N)=O)CS[C@H]12)c1ccco1 [Cefuroxine, Cefuroxime]"
3,1,C[C@H]1[C@H](NC(=O)/C(=N\OC(C)(C)C(=O)O)c2csc(N)n2)C(=O)N1S(=O)(=O)O [Aztreonam]
4,1,Cc1onc(-c2c(Cl)cccc2Cl)c1C(=O)N[C@@H]1C(=O)N2[C@@H]1SC(C)(C)[C@@H]2C(=O)O [Dicloxacillin]
5,10,C[C@@H](O)[C@H]1C(=O)N2C(C(=O)O)=C([C@H]3CCCO3)S[C@H]12 [Faropenem]
6,100,O=C1[C@H](CC[C@H](O)c2ccc(F)cc2)[C@@H](c2ccc(O)cc2)N1c1ccc(F)cc1 [Ezetimibe]
7,10,CC1=C(C(=O)O)N2C(=O)[C@@H](NC(=O)[C@H](N)c3ccccc3)[C@H]2SC1 [Cephalexin]
8,1,CC1(C)S[C@@H]2[C@H](NC(=O)[C@H](N)c3ccc(O)cc3)C(=O)N2[C@H]1C(=O)O [Amoxicillin]

row,Compound,Optimal Adherence Concentration (nM)*** [nM]
1,"CC1(C)S[C@@H]2[C@H](NC(=O)COc3ccccc3)C(=O)N2[C@H]1C(=O)O [Pen V, Penicillin V]",10

# Same assay, conditions: 2,000 U937 cells added per compound-treated well; at optimal adherence concentration
row,Adherent Cells,Compound
1,52 ± 6,C[C@@H](O)[C@H]1C(=O)N2C(C(=O)O)=C(S[C@@H]3CN[C@H](CNS(N)(=O)=O)C3)[C@H](C)[C@H]12 [Doripenem]
2,34 ± 8,"CO/N=C(\C(=O)N[C@@H]1C(=O)N2C(C(=O)O)=C(COC(N)=O)CS[C@H]12)c1ccco1 [Cefuroxine, Cefuroxime]"
3,33 ± 4,C[C@H]1[C@H](NC(=O)/C(=N\OC(C)(C)C(=O)O)c2csc(N)n2)C(=O)N1S(=O)(=O)O [Aztreonam]
4,26 ± 9,Cc1onc(-c2c(Cl)cccc2Cl)c1C(=O)N[C@@H]1C(=O)N2[C@@H]1SC(C)(C)[C@@H]2C(=O)O [Dicloxacillin]
5,23 ± 4,C[C@@H](O)[C@H]1C(=O)N2C(C(=O)O)=C([C@H]3CCCO3)S[C@H]12 [Faropenem]
6,40 ± 3,O=C1[C@H](CC[C@H](O)c2ccc(F)cc2)[C@@H](c2ccc(O)cc2)N1c1ccc(F)cc1 [Ezetimibe]
7,27 ± 10,CC1=C(C(=O)O)N2C(=O)[C@@H](NC(=O)[C@H](N)c3ccccc3)[C@H]2SC1 [Cephalexin]
8,54 ± 20,CC1(C)S[C@@H]2[C@H](NC(=O)[C@H](N)c3ccc(O)cc3)C(=O)N2[C@H]1C(=O)O [Amoxicillin]

row,Compound,Adherent Cells
1,"CC1(C)S[C@@H]2[C@H](NC(=O)COc3ccccc3)C(=O)N2[C@H]1C(=O)O [Pen V, Penicillin V]",30 ± 4

# Test system: E. coli DH5-Alpha
# Assay: Kirby-Bauer Disk Test, zones of inhibition
# Type: cell-based
# Settings: 0.5 mM
# Protocol: […] At this concentration of cells, bacteria were spread on Mueller-Hinton agar plates. […] After incubation for 16 hours at 37° C., plates were examined for zones of inhibition.
row,Compound,activity in the Kirby-Bauer Disk Test
1,"CC1(C)S[C@@H]2[C@H](NC(=O)[C@H](N)c3ccccc3)C(=O)N2[C@H]1C(=O)O [D-Ampicillin, Ampicillin]",exhibits activity

# Same assay, conditions: Escherichia coli, DH5ALPHA; 0.5 mM, 10 μl per disk, 16 hours at 37° C.; read-out: diameter of zone of inhibition
row,Compound,zone of inhibition at 500 µM [mm]
1,"CC1(C)S[C@@H]2[C@H](NC(=O)[C@H](N)c3ccccc3)C(=O)N2[C@H]1C(=O)O [D-Ampicillin, Ampicillin]",15

# Same assay, conditions: Escherichia coli, DH5ALPHA; 5 mM, 10 μl per disk, 16 hours at 37° C.; read-out: diameter of zone of inhibition
row,Compound,zone of inhibition at 5000 µM [mm]
1,"CC1(C)S[C@@H]2[C@H](NC(=O)[C@H](N)c3ccccc3)C(=O)N2[C@H]1C(=O)O [D-Ampicillin, Ampicillin]",30

# Test system: LDL
# Assay: Diet-induced obesity (DIO) mouse model, serum LDL levels
# Type: in vivo
# Settings: 10 mg/kg oral gavage 5 days per week, week 6, normalized to vehicle
# Protocol: The well-known Jackson Laboratory (Bar Harbor, Me.) C57BL/6 Diet-Induced Obesity (DIO) mouse model represents human metabolic syndrome and elevated LDL levels. Mice are fed a high fat diet (60% fat) or normal diet (10% fat) for various periods of time and lipoprotein levels were measured. […] In accordance with a protocol used in a recently conducted human clinical trial (NCT01731691), mouse peripheral blood was collected into blood collection tubes, and serum was analyzed for lipoprotein levels using Beckman Coulter AU680 Chemistry System. In addition, cells were analyzed by flow cytometry to quantitate lymphocyte subsets including CD3, CD4, and CD8. As compared to baseline levels (before treatment), lipoprotein levels (including, but not limited to total cholesterol, HDL, LDL, apoA, apoB, apoC, apoE) and blood cells expressing the above mentioned cellular markers were quantitated to determine changes due to treatment. Diet-induced obesity mice (DIO, Jackson Laboratory) were fed a 60% fat diet for 17 weeks. […] Because mice were maintained on the DIO diet throughout the study, body weight and LDL levels increased in the vehicle control (Group 1). To compare the effectiveness of compounds, mean values within each treatment group were normalized by forming a ratio to mean values of vehicle, and the ratio was expressed as normalized % change using to the formula: 100−(Treatment mean/Vehicle mean*100).
row,Compound,normalized mean % change in LDL [%]
1,O=C1[C@H](CC[C@H](O)c2ccc(F)cc2)[C@@H](c2ccc(O)cc2)N1c1ccc(F)cc1 [Ezetimibe],−43.8±29.6

# Test system: HIV permissive (plus) clone 10
# Assay: Adherence assay on coverslips, U937 plus clone 10
# Type: cell-based, human
# Settings: not given
# Protocol: To coverslips prepared with chemoattractants as described above, 10^6 cells in 90 μl HBSS were mixed to uniformity, and incubated for 30 min in humidified 5% CO2 at 37° C. without dehydration. To detect interacting effects of stimulants, cells were delivered in an 80 μl volume to coverslips previously prepared with 10 μl of one stimulant, mixed to uniformity, and incubated for 15 min at 37° C. Subsequently, an additional stimulant was delivered in a 10 μl volume to each coverslip, mixed with pre-incubated cells to uniformity, and incubated for 30-60 min at 37° C. […] Slides were examined by epi-illumination UV microscopy on a Zeiss Axioskop Means and standard deviations were determined by counting adherent cells in at least three fields/coverslip.
# Means and standard deviations represent the difference between stimulated and unstimulated adherence. […] Adherence was optimized for each chemoattractant and adherence induced by each chemoattractant was enumerated in more than three separate experiments.
row,Compound,stimulation of adherence
1,Phe-Leu-Gly-Phe-Leu (FLGFL; printed: Phe-Leu-Gly-Phe-Leu) [synthetic peptide representative of the HIV fusion domain],stimulated to adhere
2,MAAPVCK [methoxysuccinyl-L-Ala-L-Ala-L-Pro-L-Val-chloromethylketone],stimulated to adhere
3,N-tosyl-L-phenylalanine chloromethylketone [TPCK],stimulated to adhere
